Measurements as given in a melting point compilation (Tetko et al.; mined from patent text by program, amines drawn as free bases though some values may be those of a salt).

First: O=C(NC(Cc1c[nH]c2ccccc12)C(=O)OCc1ccccc1C(F)(F)F)c1ccccc1 (stereo not drawn)
Second: NC(=O)CNC(=O)c1cccc(-c2cccc3cc(CCc4cccc(C(F)(F)F)c4)sc23)c1
The melting point of the first is lower: 117 °C for the first, 153 to 154 °C for the second.

First: Nc1ccc(/C=C/C(=O)CC(=O)/C=C/c2ccc(O)cc2)cc1
Second: CCOc1ccc(C2(C(=O)Oc3ccc(C(=O)NO)cc3)CCCCC2)cc1
The melting point of the first is higher: 212 to 217 °C for the first, 140 to 143 °C for the second.

Compared with `CCCCCCCCCCCCCCOc1ccc(C(=O)Cc2ccc([N+](=O)[O-])cc2)cc1`, `CCCCCCOc1cc(-c2ccc3cc4c(cc3c2)C(C)(C)CCC4(C)C)ccc1C(=O)O` is higher in melting point: 84 to 85 °C for the first, 105 to 106 °C for the second.

First: CC(C)CC(=O)OC1c2ccccc2C(=O)N1c1ccc2ccc(Cl)nc2n1 (stereo not drawn)
Second: Nc1ccc2ccc(N3CCCC3)nc2n1
The melting point of the first is lower: 154 °C for the first, 251 °C for the second.

First: O=[N+]([O-])c1ccc(CP2(=O)OCCO2)cc1
Second: CCC(C(c1ccc(OC)cc1)c1ccc(C(C)(C)C)cc1)[N+](=O)[O-] (stereo not drawn)
The melting point of the first is higher: 144 to 145 °C for the first, 114 to 116 °C for the second.

First: CCOC(=O)N(CC(=O)NCCc1ccc(OC)c(OC)c1)c1cccc(C(N)=O)c1
Second: CCOC(=O)C(O)(CC(=O)c1ccc(C)c(F)c1)C(=O)OCC
The melting point of the first is higher: 104 to 105 °C for the first, 68.7 to 69 °C for the second.

First: CCc1nc2cc(Nc3nccc(-c4ccc(N5CCN(CC)CC5)nc4)n3)ccc2o1
Second: CN(CC1OCCO1)c1nccc(Oc2ccc(NC(=O)c3cc(F)cc(N4CCCCC4)c3)c3ccccc23)n1
The melting point of the first is higher: 174 to 176 °C for the first, 125 to 127 °C for the second.

First: COc1cc(NC(C)=O)c(Cl)cc1C(=O)NN1CCN(CCC(C)C)CC1
Second: COC(=O)c1ccccc1S(=O)(=O)NC(=O)Nc1cc(C)cc(C)n1
The melting point of the first is lower: 128 to 130 °C for the first, 181 to 182 °C for the second.

`O=C(O)c1c(Oc2ccc(F)cc2)cccc1Oc1ccc2c(c1)OCO2` and `O=C(Nc1ccc(N2CCC(NC[C@H](O)COc3cccc4[nH]c(=O)[nH]c34)CC2)cc1)c1ccc2c(c1)OCO2` cannot be ordered by melting point: 164 to 166 °C for the first, 160 to 169 °C for the second.

Compared with `Cc1ccc(N)c(C(=O)Nc2cccnc2Cl)c1`, `COc1ccc(COc2cccnc2NC(=S)Nc2ccc(Cl)cc2)c(F)c1` is lower in melting point: 187 to 190 °C for the first, 138 to 140 °C for the second.

First: COC(=O)CCCCCCC(C(=O)OC)S(C)(=O)=O (stereo not drawn)
Second: CCS(=O)(=O)c1ccc(C(=O)O)c(Cl)c1CBr
The melting point of the first is lower: 47 to 48 °C for the first, 103 °C for the second.

Compared with `C=CCOC(=O)C(C(=O)OCC=C)=C1SC(O)C(O)S1` (stereo not drawn), `CSC(=O)C(=O)c1nsc(NC=O)n1` is higher in melting point: 81.2 °C for the first, 186 to 187 °C for the second.

Compared with `Cc1ccc(C2=C(c3ccc(S(N)(=O)=O)cc3)CCC2)cn1`, `CC(C)n1c(C=O)c(-c2ccc(F)cc2)c(-c2ccc(F)cc2)c1C(=O)Nc1ccc(S(N)(=O)=O)cc1` is higher in melting point: 108 to 110 °C for the first, 194 to 195 °C for the second.

First: Cc1ccc(-n2c(-c3ccccc3)cc(Br)c2-c2ccccc2)cc1
Second: COc1ccc(-c2cc(C(F)(F)F)n3ncc(-c4ccncc4)c3n2)cc1
The melting point of the first is lower: 201 to 202 °C for the first, 244 °C for the second.

Compared with `COc1c(N2C[C@H]3CCOC[C@@]3(N)C2)c(F)cc2c(=O)c(C(=O)O)cn([C@@H]3C[C@@H]3F)c12`, `CS(=O)(=O)c1ccc(-c2oc(C(=O)O)cc(=O)c2Oc2ccc(F)cc2F)cc1` is higher in melting point: 132 to 134 °C for the first, 245 °C for the second.

Compared with `CC(C)(O)c1ccc(CNC(=O)c2cccnc2Oc2cccc(S(C)(=O)=O)c2)cc1`, `Cc1oc(-c2ccco2)nc1COc1ccc(COc2ncccc2CC#N)cc1` is higher in melting point: 51 to 53 °C for the first, 141 to 142 °C for the second.

First: COc1ccc(-c2cc(=O)c3c(O)cc(OCC4=COC(C)(C)O4)cc3o2)cc1OC(=O)C(C)(C)C
Second: NC(=O)c1cccc(-c2ccc(F)c3cc(Cc4cc(F)cc(Cl)c4)sc23)c1
The melting point of the first is higher: 204 to 205 °C for the first, 168 to 169 °C for the second.

Compared with `O=c1c(Cl)nsnc1Oc1cccnc1`, `O=S1(=O)N=CN(C2CC2)c2cc(F)cc(Cl)c21` is higher in melting point: 134 to 136 °C for the first, 252 to 255 °C for the second.

First: CON=C(C(=O)O)c1nc(N)c(Cl)cc1Cl
Second: CCOCCN(SC(Cl)(Cl)Cl)C(=N)C(Cl)(Cl)Cl
The melting point of the first is higher: 139 to 144 °C for the first, 65 to 66 °C for the second.
